Laboratory results published in patent US9637491B2, “Pyrazolo[4,3-D]pyrimidines as kinase inhibitors” (Origenis GmbH, priority 2012, dated 2017).

Target: T1, SYK kinase (Homo sapiens, UniProt P43405)
T1 construct: purchased Invitrogen, Carlsbad
Test: SYK assay (OMNIA Kinase Assay, Invitrogen)
Type: biochemical
Details: SYK Activities; 1 mM ATP, 10 μM Omnia Peptide Substrate Tyr 7, 30° C.
Outline: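 SYK was added last to start phosphorylation of a chelation-enhanced SOX peptide substrate (10 μM) in the presence of 1 mM ATP and 0.2 mM DTT at 30° C. Kinetic readings at λex 360/λem 485 nm over 30 min gave velocities, fitted sigmoidally against compound concentration to give IC50.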

IC50	SMILES
100 to 1000 nM	Cc1c(Nc2nc(C3CCC3)nc3cn[nH]c23)cnn1C(C)C [Example 325, 5-cyclobutyl-N-(1-isopropyl-5-methyl-1H-pyrazol-4-yl)-1H-pyrazolo[4,3-d]pyrimidin-7-amine]
< 10 nM	FCCn1cc(Nc2nc(-c3ccc4cn[nH]c4c3)nc3cn[nH]c23)cn1 [Example 417, N-(1-(2-fluoroethyl)-1H-pyrazol-4-yl)-5-(1H-indazol-6-yl)-1H-pyrazolo[4,3-d]pyrimidin-7-amine]
< 10 nM	CC(C)n1cc(Nc2nc(-c3ccco3)nc3cn[nH]c23)cn1 [Example 214, 5-(furan-2-yl)-N-(1-isopropyl-1H-pyrazol-4-yl)-1H-pyrazolo[4,3-d]pyrimidin-7-amine]
10 to 100 nM	CC(C)(C)n1cc(Nc2nc(C3CCC3)nc3cn[nH]c23)cn1 [Example 222, N-(1-(tert-butyl)-1H-pyrazol-4-yl)-5-cyclobutyl-1H-pyrazolo[4,3-d]pyrimidin-7-amine]
10 to 100 nM	CC(C)Cn1cc(Nc2nc(-c3cocn3)nc3cn[nH]c23)cn1 [Example 246, N-(1-isobutyl-1H-pyrazol-4-yl)-5-(oxazol-4-yl)-1H-pyrazolo[4,3-d]pyrimidin-7-amine]
10 to 100 nM	Cc1ccc(-c2nc(Nc3ccc(N4CCOCC4)cc3)c3[nH]ncc3n2)s1 [Example 9, 5-(5-methylthiophen-2-yl)-N-(4-morpholinophenyl)-1H-pyrazolo[4,3-d]pyrimidin-7-amine]
10 to 100 nM	Cn1cc(-c2nc(Nc3ccc(N4CCOCC4)cc3)c3[nH]ncc3n2)cn1 [Example 121, 5-(1-methyl-1H-pyrazol-4-yl)-N-(4-morpholinophenyl)-1H-pyrazolo[4,3-d]pyrimidin-7-amine]
< 10 nM	c1nn(C2CCNC2)cc1Nc1nc(-c2ccc3cn[nH]c3c2)nc2cn[nH]c12 (stereo not shown) [Example 447, 5-(1H-indazol-6-yl)-N-(1-(pyrrolidin-3-yl)-1H-pyrazol-4-yl)-1H-pyrazolo[4,3-d]pyrimidin-7-amine]
100 to 1000 nM	COc1ccc(Nc2nc(-c3ccc(C)s3)nc3cn[nH]c23)cc1OC [Example 8, N-(3,4-dimethoxyphenyl)-5-(5-methylthiophen-2-yl)-1H-pyrazolo[4,3-d]pyrimidin-7-amine]
100 to 1000 nM	CC(C)(C)n1cc(Nc2nc(-c3ncco3)nc3cn[nH]c23)cn1 [Example 249, N-(1-(tert-butyl)-1H-pyrazol-4-yl)-5-(oxazol-2-yl)-1H-pyrazolo[4,3-d]pyrimidin-7-amine]
10 to 100 nM	CC(C)Cn1cc(Nc2nc(-c3ccco3)nc3cn[nH]c23)cn1 [Example 238, 5-(furan-2-yl)-N-(1-isobutyl-1H-pyrazol-4-yl)-1H-pyrazolo[4,3-d]pyrimidin-7-amine]
100 to 1000 nM	COCCn1cc(Nc2nc(C(C)C)nc3cn[nH]c23)cn1 [Example 185, 5-isopropyl-N-(1-(2-methoxyethyl)-1H-pyrazol-4-yl)-1H-pyrazolo[4,3-d]pyrimidin-7-amine]
10 to 100 nM	FC(F)(F)Cn1cc(Nc2nc(-c3ccco3)nc3cn[nH]c23)cn1 [Example 377, 5-(furan-2-yl)-N-(1-(2,2,2-trifluoroethyl)-1H-pyrazol-4-yl)-1H-pyrazolo[4,3-d]pyrimidin-7-amine]
100 to 1000 nM	COCCn1ccc(Nc2nc(C3CC3)nc3cn[nH]c23)cc1=O [Example 231, 4-((5-cyclopropyl-1H-pyrazolo[4,3-d]pyrimidin-7-yl)amino)-1-(2-methoxyethyl)pyridin-2(1H)-one]
100 to 1000 nM	COc1ccc(Nc2nc(C3CCCCCC3)nc3cn[nH]c23)cc1OC [Example 388, 5-cycloheptyl-N-(3,4-dimethoxyphenyl)-1H-pyrazolo[4,3-d]pyrimidin-7-amine]
10 to 100 nM	CN(C)C(=O)Cn1cc(Nc2nc(-c3cccc(-c4cccnc4)c3)nc3cn[nH]c23)cn1 [Example 466, N,N-dimethyl-2-(4-((5-(3-(pyridin-3-yl)phenyl)-1H-pyrazolo[4,3-d]pyrimidin-7-yl)amino)-1H-pyrazol-1-yl)acetamide]
